Patent US20210032257A1, “(E)-1-(4-(DIMETHYLAMINO)BUT-2-ENOYL)PYRROLIDIN-3-YL 4-((3-ISOPROPYL-5-METHYLPYRAZOLO[1,5-A]PYRIMIDIN-7-YL)AMINO)PIPERIDINE-1-CARBOXYLATE FOR INHIBITING CDK7” (Eli Lilly and Company, priority 2017, published 2021)

Tests used:
[1] = tested on: UACC893; test: Biomarker study proliferation (CellTiter-Glo); type: cell-based
Description: (§1) Cancer cell lines are profiled to evaluate the anti-proliferative activity of a test compound in-vitro. Mutation, copy number and gene expression information of ARID1A, KMT2C, KMT2D and/or RB1 genes across cancer cell lines is obtained from COSMIC database (cancer.sanger.ac.uk) and cBioportal (http://www.cbioportal.org/). Cells are cultured in growth medium and plated into a 96-well plate in 100 μL/well growth medium at 5000 cells/well then incubated at 37° C., 5% CO2 overnight. Cells are cultured using supplier recommended media and conditions well known in the art, for example with RPMI 1640 with or without HEPES & L-Glutamine (Thermo SH30255.01) and 1 mM Sodium Pyruvate, and 10% FBS(Gibco cat #10082). The 1000× intermediate dilution plate is prepared by making a 10 mM working solution of a test sample in DMSO and performing 1:3 dilutions in DMSO for 10 points. The 10× dosing plate is prepared by adding 2 μL from the 1000× intermediate dilution plate to 198 μL of OPTIMEM®+10% FBS and mixing well. The cell plate is then treated by adding 11 μL from the 10× dosing plate into the 100 μL/well cell plate for a 1× final concentration. Staurosporine is used as a maximum growth inhibition control at a final concentration of 5 μM. The cell plate is incubated for 7 days at 37° C., 5% CO2. Seven days after treatment, Cell Titer-Glo® (Promega cat #G7571) assay buffer and substrate are removed from −20° C. and allowed to equilibrate to RT. Assay buffer is added to the substrate and swirled gently to mix. The CELL TITER-GLO® reagent (100 μL/well) is added to the cell plate and incubated at RT for 15 minutes. After 15 minutes, luminescence is read using a plate reader. Data is analyzed in Excel and graphed in GraphPad Prism. Statistical analysis and p value is calculated using Mann-Whitney nonparameteric t tests using GraphPad Prism.
(§2) Anti-proliferative effects of a test compound are categorized as insensitive (IC50≥1 μM), cytostatic (IC50<1 μM and % inhibition <70%) or cytotoxic (IC50<1 μM and % inhibition ≥70%).

[2] = tested on: KLE; test: Biomarker study proliferation (CellTiter-Glo); type: cell-based
Description: as §1, §2

[3] = tested on: HL60; test: Biomarker study proliferation (CellTiter-Glo); type: cell-based
Description: as §1, §2

[4] = tested on: U87MG; test: Biomarker study proliferation (CellTiter-Glo); type: cell-based
Description: as §1, §2

[5] = tested on: phospho-carboxyl terminal domain (Ser2) in HCT116 cells; test: p-CTD (S2) cell based Acumen assay; details: Homo sapiens, HCT-116, 4 hours, read-out: relative IC50 for phosphoCTD (S2)
Description: HCT116 cells (ATCC CCL-247) are cultured in McCoy's 5A Medium Modified media supplemented with 10% FBS, 1% NaPyr and 1% Pen/Strep and plated (prior to becoming 70% confluent) in 96-well flat-bottom plates at a density of 5,000 cells per well in 100 μL volume. The cells are then incubated overnight in a cell culture incubator (5% CO2, 95% Relative Humidity (RH) and 37° C.) and allowed to attach to the plate. The following morning the cells are dosed with compounds. Compound inhibitors are first solubilized at 60 μM in culture medium containing 0.6% DMSO. Subsequently compound serial dilutions (1:3) are prepared over a […] to […] range. […]
The following day cells are washed three times with PBS (100 μL/well) and incubated with 50 μL/well of secondary antibody (1:2000 dilution, Goat anti-rabbit IgM ALEXA FLUOR™ 488) in PBS for 1 hour at RT. […] Plates are analyzed on Acumen on FL2 (mean intensity), and FL3 (total intensity). Fluorescence plates are scanned with ACUMEN EXPLORER™ [Laser-scanning fluorescence microplate cytometer manufactured by TTP LABTECH LTD] to measure anti-phospho-carboxyl terminal domain at Serine 2 (pCTD). […]
The IC50 is determined by curve fitting to a four parameter logistic for each output using GENE DATA™.

[6] = tested on: cMyc in HCT116 cells; test: cMyc cell based Acumen assay; details: Homo sapiens, HCT-116, 4 hours, read-out: Relative IC50 for cMyc
[7] = tested on: Others (cancer cell lines); test: Biomarker study: distribution of anti-proliferation effects; type: cell-based
Description: as §1, §2

[8] = tested on: RB1 mutants cancer cell lines; test: as above; type: cell-based
Description: as §1, §2

[9] = tested on: KMT2D mutants cancer cell lines; test: as above; type: cell-based
Description: as §1, §2

[10] = tested on: KMT2C mutants cancer cell lines; test: as above; type: cell-based
Description: as §1, §2

[11] = tested on: ARID1A mutants cancer cell lines; test: as above; type: cell-based
Description: as §1, §2

For `Cc1cc(NC2CCN(C(=O)O[C@H]3CCN(C(=O)/C=C/CN(C)C)C3)CC2)n2ncc(C(C)C)c2n1` [Example 1, [(3S)-1-[(E)-4-(dimethylamino)but-2-enoyl]pyrrolidin-3-yl] 4-[(3-isopropyl-5-methyl-pyrazolo[1,5-a]pyrimidin-7-yl)amino]piperidine-1-carboxylate], the IC50 ([1]; Homo sapiens, UACC-893, 168 h, read-out: Anti-proliferation effect IC50) was 4.15 µM, the “Anti-proliferation effect % Inh.” value ([1]; UACC893, BREAST, 7 days) was −51% and the “Anti-proliferation effect Outcome” value ([1]; UACC893, BREAST, 7 days) was “Insensitive (insensitive (IC50≥1 μM))”. For the same molecule, the “Anti-proliferation effect % Inh.” value ([2]; ENDOMETRIUM, 7 days) was 65%, the “Anti-proliferation effect Outcome” value ([2]; ENDOMETRIUM, 7 days) was “Cytostatic (cytostatic (IC50<1 μM and % inhibition <70%))” and the IC50 ([2]; Homo sapiens, 168 h, read-out: Anti-proliferation effect IC50) was 28 nM. For the same molecule, the “Anti-proliferation effect % Inh.” value ([3]; HL60, BLOOD, 7 days) was 87%, the “Anti-proliferation effect Outcome” value ([3]; HL60, BLOOD, 7 days) was “Cytotoxic (cytotoxic (IC50<1 μM and % inhibition ≥70%))” and the IC50 ([3]; Homo sapiens, HL-60, 168 h, read-out: Anti-proliferation effect IC50) was 45 nM. The IC50 ([4]; Homo sapiens, U-87 MG, 168 h, read-out: Anti-proliferation effect IC50) was 7.36 µM, the “Anti-proliferation effect % Inh.” value ([4]; U87MG, CNS, 7 days) was −5% and the “Anti-proliferation effect Outcome” value ([4]; U87MG, CNS, 7 days) was “Insensitive (insensitive (IC50≥1 μM))”. The IC50 [5] was greater than 2000 nM, the IC50 [6] was 82.8 nM and the “Distribution (%) of anti-proliferation effects: Cytotoxic (IC50 <1 μM, % Inh. ≥70)” value (“Distribution (%)” below) [7] was 40%, n = 41. The “Distribution (%)” value [8] was 54%, n = 22, the “Distribution (%)” value [9] was 76%, n = 19 and the “Distribution (%)” value [10] was 70%, n = 7. For the same molecule, the “Distribution (%)” value [11] was 64%, n = 25.
